In ChEMBL document CHEMBL3526141, “Characterization of human liver enzymes involved in the biotransformation of boceprevir, a hepatitis C virus protease inhibitor” (Drug Metab Dispos, 2011):
pIC50: −log10 of the molar value.

How the values were obtained:
Cytochrome P450 2C19 = Cytochrome P450 2C19 (Homo sapiens, UniProt P33261); test: Drug metabolism assessed as human CYP2C19-mediated compound formation from 5 uM [14C]boceprevir after 120 mins by LC-MS/FSA method relative to total [14C]boceprevir; type: ADME; conditions: recombinant enzyme, 2 h
Chain of Cytochrome P450 2C19 (P33261 whole entry): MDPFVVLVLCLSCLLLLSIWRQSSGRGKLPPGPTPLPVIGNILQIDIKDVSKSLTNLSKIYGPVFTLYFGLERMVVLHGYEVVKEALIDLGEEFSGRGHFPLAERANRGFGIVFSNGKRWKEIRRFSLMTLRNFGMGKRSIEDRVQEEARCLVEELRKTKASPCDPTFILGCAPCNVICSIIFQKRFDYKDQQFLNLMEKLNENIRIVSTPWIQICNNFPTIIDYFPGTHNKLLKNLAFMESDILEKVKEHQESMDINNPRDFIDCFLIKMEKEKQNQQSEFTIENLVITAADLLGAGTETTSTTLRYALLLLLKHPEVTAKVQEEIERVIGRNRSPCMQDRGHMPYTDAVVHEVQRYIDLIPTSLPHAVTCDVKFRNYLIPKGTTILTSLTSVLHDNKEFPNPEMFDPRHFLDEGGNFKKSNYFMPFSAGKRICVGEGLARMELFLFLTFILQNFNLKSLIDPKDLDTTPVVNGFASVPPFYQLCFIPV

Cytochrome P450 3A4 = Cytochrome P450 3A4 (Homo sapiens, UniProt P08684); test: Drug metabolism assessed as human CYP3A4-mediated compound formation from 20 uM [14C]boceprevir after 120 mins by LC-MS/FSA method relative to total [14C]boceprevir; type: ADME; conditions: recombinant enzyme, 2 h
Chain of Cytochrome P450 3A4 (P08684 whole entry): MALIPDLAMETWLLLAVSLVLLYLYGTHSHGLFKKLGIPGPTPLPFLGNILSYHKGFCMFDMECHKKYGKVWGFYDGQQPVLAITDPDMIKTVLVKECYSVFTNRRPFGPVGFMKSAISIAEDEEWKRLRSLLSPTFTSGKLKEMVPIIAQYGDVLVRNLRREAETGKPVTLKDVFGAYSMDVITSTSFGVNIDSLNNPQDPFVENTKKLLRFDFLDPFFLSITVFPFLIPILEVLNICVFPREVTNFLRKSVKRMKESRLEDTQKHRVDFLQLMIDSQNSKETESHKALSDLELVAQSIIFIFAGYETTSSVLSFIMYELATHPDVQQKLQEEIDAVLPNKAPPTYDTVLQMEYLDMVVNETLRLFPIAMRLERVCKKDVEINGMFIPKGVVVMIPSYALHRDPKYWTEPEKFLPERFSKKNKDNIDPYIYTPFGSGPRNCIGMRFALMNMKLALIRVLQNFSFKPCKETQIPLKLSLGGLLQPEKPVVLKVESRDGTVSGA

Cytochrome P450 2D6 = Cytochrome P450 2D6 (Homo sapiens, UniProt P10635); test: Drug metabolism assessed as human CYP2D6-mediated compound formation from 5 uM [14C]boceprevir after 120 mins by LC-MS/FSA method relative to total [14C]boceprevir; type: ADME; conditions: recombinant enzyme, 2 h
Chain of Cytochrome P450 2D6 (P10635 whole entry): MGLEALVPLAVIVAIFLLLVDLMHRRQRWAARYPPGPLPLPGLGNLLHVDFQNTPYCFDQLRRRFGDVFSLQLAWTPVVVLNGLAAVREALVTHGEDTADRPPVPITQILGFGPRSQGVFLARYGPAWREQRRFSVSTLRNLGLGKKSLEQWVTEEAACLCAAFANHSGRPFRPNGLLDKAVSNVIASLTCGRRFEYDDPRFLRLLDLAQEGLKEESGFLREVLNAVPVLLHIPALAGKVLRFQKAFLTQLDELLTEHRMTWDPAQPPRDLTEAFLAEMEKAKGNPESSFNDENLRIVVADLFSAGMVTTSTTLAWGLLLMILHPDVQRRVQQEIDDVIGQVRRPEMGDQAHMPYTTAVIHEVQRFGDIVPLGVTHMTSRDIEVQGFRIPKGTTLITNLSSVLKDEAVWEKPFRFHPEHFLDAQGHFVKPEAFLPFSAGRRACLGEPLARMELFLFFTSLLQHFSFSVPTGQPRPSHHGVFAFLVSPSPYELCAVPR

Plasma = test: Drug metabolism in human plasma treated with [14C]boceprevir assessed as ratio of drug level by LC-MS/MS method relative to boceprevir; type: ADME, cell-free
Liver cytosol [1] = test: Drug metabolism in human liver cytosol at 20 uM assessed as (1R,2S,5S)-N-((2R,3R)-4-amino-1-cyclobutyl-3-hydroxy-4-oxobutan-2-yl)-3-((S)-2-(3-tert-butylureido)-3,3-dimethylbutanoyl)-6,6-dimethyl-3-azabicyclo[3.1.0]hexane-2-carboxamide formation in presence of BNPP by LC-MS/MS/FSA method; type: ADME
Cytochrome P450 4F3 = target: T1, Cytochrome P450 4F3 (Homo sapiens, UniProt Q08477); test: Drug metabolism assessed as human CYP4F3A-mediated compound formation from 5 uM [14C]boceprevir after 120 mins by LC-MS/FSA method relative to total [14C]boceprevir; type: ADME; conditions: recombinant enzyme, 2 h
T1 sequence (Q08477 whole entry): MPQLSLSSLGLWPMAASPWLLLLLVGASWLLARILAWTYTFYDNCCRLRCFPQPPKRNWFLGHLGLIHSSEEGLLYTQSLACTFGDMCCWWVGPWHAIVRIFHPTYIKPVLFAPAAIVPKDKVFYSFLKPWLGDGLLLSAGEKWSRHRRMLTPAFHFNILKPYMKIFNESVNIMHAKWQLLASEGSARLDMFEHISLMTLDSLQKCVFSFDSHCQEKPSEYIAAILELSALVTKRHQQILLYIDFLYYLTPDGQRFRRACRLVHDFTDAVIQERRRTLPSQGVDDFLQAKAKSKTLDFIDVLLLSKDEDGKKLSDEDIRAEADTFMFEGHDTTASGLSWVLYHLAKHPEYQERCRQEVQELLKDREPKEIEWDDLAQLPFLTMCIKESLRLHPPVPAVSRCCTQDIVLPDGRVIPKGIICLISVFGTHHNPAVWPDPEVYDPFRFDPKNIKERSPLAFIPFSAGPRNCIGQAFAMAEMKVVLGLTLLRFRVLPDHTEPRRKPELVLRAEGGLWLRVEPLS

Liver cytosol [2] = test: Drug metabolism in human liver cytosol at 20 uM assessed as (1R,2S,5S)-N-((2S,3R)-4-amino-1-cyclobutyl-3-hydroxy-4-oxobutan-2-yl)-3-((S)-2-(3-tert-butylureido)-3,3-dimethylbutanoyl)-6,6-dimethyl-3-azabicyclo[3.1.0]hexane-2-carboxamide formation in presence of BNPP by LC-MS/MS/FSA method; type: ADME
Cytochrome P450 1A2 = target: T2, Cytochrome P450 1A2 (Homo sapiens, UniProt P05177); test: Drug metabolism assessed as human […]-mediated compound formation from 5 uM [14C]boceprevir after 120 mins by LC-MS/FSA method relative to total [14C]boceprevir; type: ADME; conditions: recombinant enzyme, 2 h
T2 sequence (P05177 whole entry): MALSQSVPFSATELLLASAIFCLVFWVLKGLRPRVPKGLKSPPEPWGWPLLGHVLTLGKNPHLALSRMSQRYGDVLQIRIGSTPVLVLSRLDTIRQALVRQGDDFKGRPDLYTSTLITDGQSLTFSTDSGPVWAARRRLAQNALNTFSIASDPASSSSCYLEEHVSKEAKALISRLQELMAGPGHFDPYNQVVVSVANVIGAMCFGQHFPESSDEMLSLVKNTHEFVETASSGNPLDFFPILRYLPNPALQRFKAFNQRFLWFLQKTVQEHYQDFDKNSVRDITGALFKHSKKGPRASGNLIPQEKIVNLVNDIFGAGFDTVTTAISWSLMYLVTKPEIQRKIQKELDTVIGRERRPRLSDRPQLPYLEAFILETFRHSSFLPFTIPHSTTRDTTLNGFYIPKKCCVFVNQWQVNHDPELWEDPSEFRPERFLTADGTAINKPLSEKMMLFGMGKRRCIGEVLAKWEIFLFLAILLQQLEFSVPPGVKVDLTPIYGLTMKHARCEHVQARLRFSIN

Cytochrome P450 2B6 = target: T3, Cytochrome P450 2B6 (Homo sapiens, UniProt P20813); test: Drug metabolism assessed as human CYP2B6-mediated compound formation from 5 uM [14C]boceprevir after 120 mins by LC-MS/FSA method relative to total [14C]boceprevir; type: ADME; conditions: recombinant enzyme, 2 h
T3 sequence (P20813 whole entry): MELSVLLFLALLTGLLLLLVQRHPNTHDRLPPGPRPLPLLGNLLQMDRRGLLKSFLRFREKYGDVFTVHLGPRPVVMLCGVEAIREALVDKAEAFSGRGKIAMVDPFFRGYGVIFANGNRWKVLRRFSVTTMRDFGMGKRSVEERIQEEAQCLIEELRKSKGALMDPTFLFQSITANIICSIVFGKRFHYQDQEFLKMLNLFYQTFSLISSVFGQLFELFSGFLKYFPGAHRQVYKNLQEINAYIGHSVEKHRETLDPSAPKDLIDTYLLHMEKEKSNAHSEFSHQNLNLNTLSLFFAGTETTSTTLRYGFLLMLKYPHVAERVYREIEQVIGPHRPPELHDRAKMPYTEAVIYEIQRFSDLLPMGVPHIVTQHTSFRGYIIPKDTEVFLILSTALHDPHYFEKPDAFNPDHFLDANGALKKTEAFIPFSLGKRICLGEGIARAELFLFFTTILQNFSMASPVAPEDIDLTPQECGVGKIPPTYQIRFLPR

Liver cytosol [3] = test: Drug metabolism in human liver cytosol treated with 20 uM [14C]boceprevir assessed as IC50 for AKR inhibitor ibuprofen-mediated metabolite formation after 60 mins by LC-MS/MS/FSA method; type: ADME, tissue-based; conditions: 1 h
Liver cytosol [4] = test: Drug metabolism in human liver cytosol treated with 20 uM [14C]boceprevir assessed as IC50 for AKR inhibitor diflunisal-mediated metabolite formation after 60 mins by LC-MS/MS/FSA method; type: ADME, tissue-based; conditions: 1 h

Structure (SMILES)	Compound recovery (Cytochrome P450 2C19)	Compound recovery (Cytochrome P450 3A4)	Compound recovery (Cytochrome P450 2D6)	Compound recovery (Plasma)	Compound recovery (Liver cytosol [1])	Compound recovery (Cytochrome P450 4F3)	Compound recovery (Liver cytosol [2])	Compound recovery (Cytochrome P450 1A2)	Compound recovery (Cytochrome P450 2B6)	pIC50 (Liver cytosol [3])	pIC50 (Liver cytosol [4])	Compound recovery (Cytochrome P450 3A4; BLD = below limit of detection)
CC(C)(C)NC(=O)N[C@H](C(=O)N1C[C@H]2[C@@H]([C@H]1C(=O)N[C@H](CC1CCC1)C(=O)C(N)=O)C2(C)C)C(C)(C)C	30.71%	18.98%	31.66%	>= 50%	metabolite_not_detected	34.35%	metabolite_not_detected	31.72%	33.77%	–	–	–
CC(C)(C)NC(=O)N[C@H](C(=O)N1C[C@H]2[C@@H]([C@H]1C(=O)NC(CC1CCC1)C(=O)C(N)=O)C2(C)C)C(C)(C)C (some centres not stated) [BOCEPREVIR]	–	–	–	–	metabolite_not_detected	–	metabolite_not_detected	–	–	3.39	5.34	–
CC(C)(C)NC(=O)N[C@H](C(=O)N1C[C@H]2[C@@H]([C@H]1C(=O)N[C@@H](CC1CCC1)[C@@H](O)C(N)=O)C2(C)C)C(C)(C)C	0.38%	–	0.56%	>= 50%	–	1.78%	–	0.34%	0.9%	3.39	5.34	BLD
